Data published in patent US20210198277A1, “AMINE-SUBSTITUTED ARYL OR HETEROARYL COMPOUNDS” (Epizyme, Inc., priority 2016, published 2021).

Molecular target: T1, EHMT2 (Homo sapiens, UniProt Q96KQ7)
T1 construct: host or cells: MDA-MB-231
T1 sequence (Q96KQ7 1-1210): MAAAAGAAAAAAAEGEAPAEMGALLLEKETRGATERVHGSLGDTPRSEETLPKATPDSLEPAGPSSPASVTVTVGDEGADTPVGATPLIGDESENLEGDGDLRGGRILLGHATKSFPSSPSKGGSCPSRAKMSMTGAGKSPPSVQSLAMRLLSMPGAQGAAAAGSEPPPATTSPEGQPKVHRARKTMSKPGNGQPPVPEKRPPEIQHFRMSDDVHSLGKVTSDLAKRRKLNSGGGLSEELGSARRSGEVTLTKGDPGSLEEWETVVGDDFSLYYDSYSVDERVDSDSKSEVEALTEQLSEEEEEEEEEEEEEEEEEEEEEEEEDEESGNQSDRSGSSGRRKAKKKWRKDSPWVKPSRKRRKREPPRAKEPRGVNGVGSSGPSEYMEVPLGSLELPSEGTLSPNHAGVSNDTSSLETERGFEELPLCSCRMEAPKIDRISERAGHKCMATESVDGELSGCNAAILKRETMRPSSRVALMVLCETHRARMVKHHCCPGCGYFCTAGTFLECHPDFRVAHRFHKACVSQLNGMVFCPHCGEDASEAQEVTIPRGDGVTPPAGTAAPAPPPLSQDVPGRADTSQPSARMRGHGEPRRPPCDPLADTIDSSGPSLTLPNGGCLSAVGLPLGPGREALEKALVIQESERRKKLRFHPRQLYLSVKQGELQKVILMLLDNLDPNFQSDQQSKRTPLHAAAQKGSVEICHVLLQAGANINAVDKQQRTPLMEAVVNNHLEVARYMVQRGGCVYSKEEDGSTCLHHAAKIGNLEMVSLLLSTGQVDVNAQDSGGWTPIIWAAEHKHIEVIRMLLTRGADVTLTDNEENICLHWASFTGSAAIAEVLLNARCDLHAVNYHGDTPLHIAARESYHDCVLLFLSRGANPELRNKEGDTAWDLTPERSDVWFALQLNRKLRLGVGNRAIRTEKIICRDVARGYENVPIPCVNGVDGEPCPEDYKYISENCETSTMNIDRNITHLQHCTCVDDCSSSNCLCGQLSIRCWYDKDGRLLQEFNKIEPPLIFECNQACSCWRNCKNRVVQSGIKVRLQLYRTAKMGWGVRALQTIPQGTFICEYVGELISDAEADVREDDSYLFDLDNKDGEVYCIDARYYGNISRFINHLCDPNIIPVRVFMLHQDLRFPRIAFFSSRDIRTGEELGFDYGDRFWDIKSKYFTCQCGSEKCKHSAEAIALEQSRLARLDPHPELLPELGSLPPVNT
Assay: MDA-MB-231 H3K9me2 in-cell Western assay (EHMT2 ICW)
Type: cell-based
Conditions: Table VI; read-out: EHMT2 ICW IC50
How it was run: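 MDA-MB-231 cells (3,000/well) seeded onto compound, kept 30 min at room temperature, then 48 h at 37 °C, 5% CO2. IC50 from triplicate wells, four-parameter fit.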

IC50 | Compound
> 10 µM | COc1cc(NC2CCNCC2)ncc1OCC1CCN(C)C1 (stereo not drawn) [Compound 604]
> 10 µM | COc1nc(NC2CCNCC2)ncc1OCC1CCN(C)C1 (stereo not drawn) [Compound 605]
1 to 10 µM | CCN1CC(COc2cc(Nc3nc(C)cc4[nH]ncc34)ncc2OC)C1 [Compound 607]
> 10 µM | COc1cc(NC2CCNCC2)ncc1OCC1CCNC1 (stereo not drawn) [Compound 629]
> 10 µM | CCc1nc(NC2CCNCC2)ncc1OCC1CCN(C)C1 (stereo not drawn) [Compound 630]
> 10 µM | CCc1nc(NC2CCNCC2)ncc1OCC1CN(C(C)C)C1 [Compound 631]
> 10 µM | CN1CCC(Nc2ncc(OCC3CCN(C)C3)cn2)CC1 (stereo not drawn) [Compound 632]
> 10 µM | CN1CCC(COc2cnc(N(C)C3CCNCC3)nc2)C1 (stereo not drawn) [Compound 633]
> 10 µM | COc1cc(N(C)C2CCNCC2)ncc1OCC1CCN(C)C1 (stereo not drawn) [Compound 634]
> 10 µM | COc1cc(N(C)C2CCNCC2)ncc1OCC1CCN(C)C1 (stereo not drawn) [Compound 635]
> 10 µM | CC(C)N1CC(COc2cnc(NC3CCNCC3)nc2)C1 [Compound 636]
> 10 µM | CC(C)N1CC[C@@H](COc2cnc(N(C)C3CCNCC3)nc2)C1 [Compound 637]
> 10 µM | COc1cc(Nc2ccc3[nH]ncc3n2)ncc1OCCCN1CCCC1 [Compound 648]
1 to 10 µM | CCN1CC(COc2cc3nc(C)cc(C4CCN(C)CC4)c3cc2OC)C1 [Compound 660]
1 to 10 µM | CCN1CC(COc2cc3nc(C)cc(C4CCN(C(C)C)CC4)c3cc2OC)C1 [Compound 661]
0.1 to 1 µM | CCN1CC[C@@H](COc2cc3nc(C)cc(C4CCN(C)CC4)c3cc2OC)C1 [Compound 662]
0.1 to 1 µM | CCN1CC[C@@H](COc2cc3nc(C)cc(C4CCN(C(C)C)CC4)c3cc2OC)C1 [Compound 663]
> 10 µM | CCN1CC(COc2cc3nc(C)nc(C4CCN(C)CC4)c3cc2OC)C1 [Compound 664]

The next lines start with the compound.

Compound | IC50
CNc1cc(C)nc(Nc2cc(OCCCN3CCCC3)n3cnnc3c2)n1 [Compound 628] | > 10 µM
COc1cnc(Nc2cccn3cncc23)cc1OCCCN1CCCC1 [Compound 638] | > 10 µM
COc1cnc(NC(=O)/C=C/CN(C)C)cc1OCCCN1CCCC1 [Compound 640] | > 10 µM
CNc1cc(C)nc(Nc2cnc(OC)c(OC[C@@H]3CCNC3)c2)n1 [Compound 641] | 0.1 to 1 µM
COc1cc(Nc2ccc3[nH]ncc3c2)ncc1OCCCN1CCCC1 [Compound 643] | > 10 µM
CNc1cc(C)nc(Nc2ccc(OC)c(CNCCN3CCCC3)c2)n1 [Compound 644, 2-N-[4-methoxy-3-([[2-(pyrrolidin-1-yl)ethyl]amino]methyl)phenyl]-4-N,6-dimethylpyrimidine-2,4-diamine] | 0.1 to 1 µM
CNc1cc(C)nc(Nc2ccc(OC)c(CN(C)CCN3CCCC3)c2)n1 [Compound 645] | 1 to 10 µM
CCN1CCC(NCc2cc(Nc3nc(C)cc(NC)n3)ccc2OC)C1 (stereo not drawn) [Compound 646] | 1 to 10 µM
CCN1CC(NCc2cc(Nc3nc(C)cc(NC)n3)ccc2OC)C1 [Compound 647] | > 10 µM
CCN1CC([C@H](C)Oc2cc(Nc3nc(C)cc(NC)n3)ccc2OC)C1 [Compound 649] | 0.1 to 1 µM
CCN1CC(N(C)Cc2cc(Nc3nc(C)cc(NC)n3)ccc2OC)C1 [Compound 650] | > 10 µM
CCN1CCC(N(C)Cc2cc(Nc3nc(C)cc(NC)n3)ccc2OC)C1 (stereo not drawn) [Compound 651] | > 10 µM
COc1cc2c(C3CCN(C)CC3)c(F)c(C)nc2cc1OCCCN1CCCC1 [Compound 652] | 1 to 10 µM
COc1cnc(Nc2cccc3nccn23)nc1OCCCN1CCCC1 [Compound 654] | > 10 µM
COc1cnc(Nc2cccc3[nH]ncc23)nc1OCCCN1CCCC1 [Compound 655] | > 10 µM
COc1cnc(Nc2cccc3nncn23)nc1OCCCN1CCCC1 [Compound 656] | > 10 µM
COc1cc2c(C3CCN(C)CC3)nc(C)nc2cc1OCCCN1CCCC1 [Compound 658] | > 10 µM
COc1cc2c(C3CCN(C(C)C)CC3)nc(C)nc2cc1OCCCN1CCCC1 [Compound 659] | > 10 µM
